Here are results for 92 compounds from ChEMBL document CHEMBL3507680, “University of Dundee, Gates Library screen for HepG2 cell viability”.

A short description of this data set: Human HepG2 cell viability assay in 384 well format. In kind it is toxicity, cell-based. Also noted: dose 125 nL, time 70.5 hour; concentration not given beside the values. To be noted: HepG2 cells, read-out: Inhibition.

Turning to `CC(C)n1nc(CN2CCCC2=O)c2c1CN(C(=O)c1ccno1)C2`, the cytotoxicity at 70.5 h was -1.71%.
The result for `Cc1ccc(CN2CCO[C@@H]3[C@@H](OCc4cccnc4)CC[C@@H]32)o1` reads -4.63%; that for `CC(C)O[C@@H]1CC[C@H]2[C@H]1OCCN2C(=O)c1nn(C)c2ccccc12`, 1.07%.
As for `CCS(=O)(=O)N1C[C@H]2CN(CC3CC3)C(=O)[C@H]2C1`, the cytotoxicity at 70.5 h is -0.251%.
To `O=C1[C@H]2CN(S(=O)(=O)C3CC3)C[C@H]2CN1CC1CC1` belongs 0.281%; to `CC(C)NC(=O)C1CN(C(=O)c2ccco2)CC12CCOCC2` (configuration not stated), -6.64%; to `Cc1occc1C(=O)N1CC[C@@H](N2CCOCC2)[C@@H]1Cc1ccccc1`, -7.85%.
Turning to `O=C1NC2(CCN(Cc3cccnc3)CC2)CC1c1ccncc1` (configuration not stated), the cytotoxicity at 70.5 h is -10.6%.
The result for `CCOCC1CC2(CCN(C(=O)c3ccccc3F)CC2)CO1` (configuration not stated) reads 0.964%; that for `O=C(NCC1CC1)C1=NOC2(CCN(S(=O)(=O)c3cccs3)C2)C1` (configuration not stated), -10%.
`CCOCC1CC2(CCN(Cc3ccccn3)CC2)CO1` (configuration not stated): the cytotoxicity at 70.5 h is -3.81%.
To `Cc1noc(C)c1C(=O)N1CC[C@H]2C[C@@H](c3nccs3)O[C@@H]2C1` belongs -13.5%; to `CC(C)c1nccc([C@H]2C[C@@H]3CCN(Cc4ccoc4)C[C@H]3O2)n1`, -4.74%.
To `COC[C@@H]1CC[C@H]2[C@H](CCN2S(=O)(=O)c2ccc(F)cc2)O1` belongs -28.6%; to `CS(=O)(=O)N1CCC(c2nnc3ccc(C(=O)N4CCCC4)cn23)C1` (configuration not stated), -5.09%; to `CS(=O)(=O)N1CCC2(CC1)CC(CC(=O)N1CCCC1)c1ccccc12` (configuration not stated), -10.4%.
The result for `Fc1cnc(N2CCOCC3(CCCN(c4nncs4)C3)C2)nc1` (configuration not stated) reads -19.9%; that for `COCC(=O)N1CCC2(CC1)CC(CC(=O)NC1CC1)c1ccccc12` (configuration not stated), -18.5%; that for `COC[C@@H]1CC[C@H]2[C@H](CCN2S(=O)(=O)c2ccc(OC)cc2)O1`, -6.4%.
On to `CCN(C)c1ncnc2c1CCN(Cc1ccoc1)CC2`, for which the cytotoxicity at 70.5 h was -20.5%.
To `Cc1ccc(C(=O)N2C[C@@H](OCC3CCOCC3)[C@H]3OCCC[C@H]32)o1` belongs -27.2%; to `Cn1cc(-c2nnn3c2COC(CNCc2nccs2)C3)cn1` (configuration not stated), -25.2%; to `CN(C)c1nccc(-c2c[nH][nH]c2=O)n1`, -1.59%.
To `CC(C)Nc1nc2c(s1)C(=O)CN(C)C2` belongs 4.07%.
To `CNCC[C@H]1CC(C)(C)Oc2ccc(C)cc21` belongs -2.65%; to `CNCC[C@H]1CC(C)(C)Oc2ccc(OC)cc21`, -0.183%; to `CN(C)c1nccc(-c2cnc(N(C)C)[nH]c2=O)n1`, -5.37%.
For the compound `CC(=O)N1CCC(n2nccc2-c2cnc(N)nc2)CC1`, the cytotoxicity at 70.5 h is -6.3%.
To `Nc1ncc(-c2ccc(NC(=O)[C@@H]3CCCCN3)cc2)cn1` belongs 2.01%.
To `CC[C@H](C)Nc1nccc(-c2cnc3sccn3c2=O)n1` belongs -4.72%.
On to `CC(C)NC(=O)NCc1cc(-c2cccc(Cl)c2)nn1C`, for which the cytotoxicity at 70.5 h was determined as 7.95%.
To `C[C@H](NS(C)(=O)=O)C(=O)NCc1cc(-c2ccco2)n[nH]1` belongs -12.9%; to `Cc1ncc(-c2ccnc(SCCN)n2)c(-c2ccco2)n1`, 21.8%.
The result for `OC1(CNCCSc2ccccn2)CCCNC1` (configuration not stated) reads -6.54%.
For `CCC(C(=O)NCC1=CCN(C)CC1)c1ccccc1` (configuration not stated), the cytotoxicity at 70.5 h was found to be 30%.
Regarding `Cc1csc(CN2C[C@H](NC(=O)C3CCOCC3)[C@@H](C(C)C)C2)n1`, the cytotoxicity at 70.5 h was -10.9%.
The result for `COc1cc(CN2CCC3(CC2)[C@H](O)C[C@@H]3OCCO)ccc1F` reads -8.63%; that for `CC(c1ccccn1)N(C)Cc1ccc(-n2ccnc2)cc1` (configuration not stated), 1.45%; that for `CNc1ncc(C(=O)N[C@H]2CN(CCCSC)C[C@@H]2C2CC2)cn1`, -5.85%.
To `Cc1ccc(-c2cnnc(N3CCCC3c3nccs3)n2)o1` (configuration not stated) belongs -7.57%; to `N[C@@H]1CC[C@@H](Nc2nccc(CCC(F)(F)F)n2)C1`, -6.78%.
In the case of `CC(C)c1nnsc1CNC(=O)C1CCN(C(C)C)CC1`, the cytotoxicity at 70.5 h stood at 1.46%.
In the case of `O=C(NCC(F)(F)F)C1=NOC2(CCCNC2)C1` (configuration not stated), the cytotoxicity at 70.5 h stood at 0.364%.
The result for `CC(C)(CO)Nc1cc(-c2cn[nH]c2)ncn1` reads -2.91%; that for `Cc1ccc(N2CC[C@H]3O[C@@H](C(=O)N4CCCCO4)CC[C@H]32)nn1`, -4.7%.
The result for `Cc1ccc(N2CC[C@H]3O[C@@H](C(=O)N4CCCO4)CC[C@H]32)nn1` reads 0.0406%.
The result for `CN(C)C(=O)N1CCO[C@@H]2CC(COCc3cccnc3)C[C@H]21` (some centres not stated) reads -1.44%.
As for `Cn1cccc1C(=O)N1CCC2(CCN2c2ncccn2)C1` (configuration not stated), the cytotoxicity at 70.5 h is -3.82%.
To `O=S(=O)(C1CC1)N1CCC2(CCCN(c3ncccn3)C2)C1` (configuration not stated) belongs 18%; to `CN(C)[C@@H]1CN(C(=O)Cc2ccsc2)[C@@H]2CCCO[C@H]12`, 16.1%.
The result for `CN(C)C(=O)CN1CCOCC2(C1)CN(c1ncccn1)CCO2` (configuration not stated) reads 16.4%; that for `CN(C)[C@@H]1CN(C(=O)Cc2ccc(F)cc2)[C@@H]2CCCO[C@H]12`, 18.3%.
To `Cc1noc(C)c1C(=O)N1CCOC2(COCCN(C(C)C)C2)C1` (configuration not stated) belongs -1.02%; to `COCCN1CCc2ncnc(OC(C)C)c2CC1`, -9.41%.
With `O=C(Cc1ccsc1)N1Cc2nc(CN3CCCCC3)oc2C1`, the cytotoxicity at 70.5 h was -4.42%.
To `c1cnc(N2CCO[C@H]3[C@H](OCC4CCOCC4)CC[C@@H]32)nc1` belongs -10.9%; to `Cc1nocc1C(=O)N1CCOC2(COCCN(C(C)C)C2)C1` (configuration not stated), -5.11%; to `CC(C)NC(=O)[C@@]12CCO[C@@H]1CCN(Cc1ccc3c(c1)OCO3)C2`, 1.85%.
The result for `O=C(NC1CC1)[C@@]12CCO[C@@H]1CCN(Cc1ccc3c(c1)OCO3)C2` reads 2.54%; that for `O=C1CCCN1Cc1nnc2n1CCN(Cc1ccco1)CC2`, -1.59%; that for `O=C(c1cscn1)N1CC[C@@H]2[C@@H]1CCN2CC1CCOCC1`, -1.87%.
For the compound `CC(C)CCN1C[C@H]2C[C@H](C(=O)N3CCCC3)[C@@H](C1)O2`, the cytotoxicity at 70.5 h was -5.2%.
For `c1cnc(NCc2nnn3c2CN(CC2CC2)CCC3)nc1`, the cytotoxicity at 70.5 h was -4.25%.
The result for `CCOC1COC2(CCN(c3ccccn3)CC2)C1` (configuration not stated) reads -0.266%; that for `CN(C)S(=O)(=O)N1CC[C@]2(C[C@H](Oc3ncccc3F)CO2)C1`, 2.84%; that for `CN(C)S(=O)(=O)N1CC[C@]2(C[C@H](Oc3cccnc3)CO2)C1`, -5.74%.
With `O=C1CO[C@@H]2CN(Cc3cccs3)C[C@H]2N1CC1CC1`, the cytotoxicity at 70.5 h was -9.66%.
On to `O=C(c1ccco1)N1C[C@H]2CCCN(CC3CCOCC3)[C@H]2C1`, for which the cytotoxicity at 70.5 h is -7.8%.
To `Cc1nc(CN2CCO[C@@H]3CN(C(=O)NC(C)C)CC[C@@H]3C2)cs1` belongs -6.02%; to `COc1ccc(CN2CCC[C@@H]3CN(C(=O)c4ccco4)C[C@@H]32)cc1`, -10.9%; to `Cc1ccc(C(=O)N2CCC3(CC2)COC(COc2ccccn2)C3)o1` (configuration not stated), -4.24%.
To `COCC(=O)N1CCC2(CC1)CCN(Cc1ccccn1)C2=O` belongs -0.554%; to `c1cncc(N2CCOCC3(CCCN(c4nncs4)C3)C2)c1` (configuration not stated), -21.7%.
With `CN(C)C(=O)[C@@H]1CCO[C@@H]2CCN(Cc3ccc4c(c3)OCO4)C[C@@H]21`, the cytotoxicity at 70.5 h was -21.3%.
For the compound `COCC1CN(Cc2ccsc2)Cc2nn(C)cc21` (configuration not stated), the cytotoxicity at 70.5 h came to 16.3%.
To `CN(C)C[C@H]1OC[C@@H]2CCN(S(=O)(=O)c3ccccc3)C[C@@H]21` belongs 22.9%.
The result for `O=C(c1ncccn1)N1C[C@H]2CCC[C@@]2(COCc2cccnc2)C1` reads 15.8%; that for `CCO[C@@H]1CO[C@@]2(CCCN(S(=O)(=O)c3cccnc3)C2)C1`, -17.7%.
The result for `CC(C)NC(=O)N1CCC2(C1)CN(c1ccsc1)C(=O)CN2C` (configuration not stated) reads -9.03%; that for `COCC1CN(c2ncc(F)cn2)Cc2cnn(C)c21` (configuration not stated), -4.56%; that for `Cc1cccc(CN2CCO[C@@H]3CC(COc4ccccn4)C[C@H]32)n1` (some centres not stated), 5.17%.
As for `Cc1nc(CN2CCC3(CC2)CC(c2cccnc2)C(=O)N3C)cs1` (configuration not stated), the cytotoxicity at 70.5 h is -3.5%.
To `c1ccc(CN2CCc3nnc(CN4CCCCC4)n3CC2)nc1` belongs 3.32%; to `CN(C)[C@@H]1CN(Cc2ccoc2)C[C@@H]2CCCO[C@@H]21`, -8.48%; to `c1csc(CN2CCOCC3(CCN(C4CCOCC4)C3)C2)n1` (configuration not stated), 0.591%.
In the case of `Cc1cccc(CN2C[C@@H]3COC[C@]3(CNC(=O)N3CCCC3)C2)n1`, the cytotoxicity at 70.5 h came out at 0.0201%.
The result for `CN(C)CC(=O)N1CCC2(CC1)COC(COc1ccccn1)C2` (configuration not stated) reads -7.86%.
The result for `Cc1cccc(C(=O)N2C[C@@H](OCc3cccnc3)[C@H]3OCCC[C@@H]32)n1` reads -1.75%; that for `O=C1NC2(CCN(Cc3nccs3)CC2)CC1c1ccncc1` (configuration not stated), -0.916%.
To `Cc1cccc(N2CC[C@@H]3CN(Cc4csc(C)n4)CCO[C@@H]3C2)n1` belongs 2.82%; to `CCN(C)c1ncnc2c1CCN(Cc1ccc(OC)cc1)CC2`, -2.63%.
For `COCC1CC2(CCN(Cc3ccc(OC)cc3)CC2)CN1C(C)C` (configuration not stated), the cytotoxicity at 70.5 h was -13.7%.
